Measurements published in patent US20100112012A1, “MODULATION OF IMMUNE RESPONSES” (CLEVELAND CLINIC FOUNDATION, priority 2005, published 2010).
Entries after “also recorded” stand apart in the source; their conditions may differ. Like-named read-outs stand apart in the source and are kept apart here. Blank lines part the entries; values can stand above or below the compound they belong to.

How the values were obtained:
NF-κB [1] = assay: NF-κB-dependent reporter in H1299-NF-kBLuc cells; format: cell-based, human; settings: for basal activity of NF-κB: H1299-NF-κBLuc cells, tested side-by-side with 9AA
Procedure: (§1) Transient transfections. 2×10^5 cells were plated into 6-well plates and, after overnight incubation, transfected with Lipofectamin Plus reagent (Gibco BRL) with 0.5 μg of reporter plasmids (p21-ConALuc or pNF-κBLuc) in combination with different concentrations of plasmids expressing p53, Arf, Ss-IκB, or siHDM2. Corresponding empty vectors were added in all transfections up to 2 μg of total DNA. Normalization of transfection efficiency was done by adding 0.2 μg of pCMV-LacZ plasmid. Luciferase activity and β-galactosidase activity were measured in lysates prepared 48 hours after transfection with Cell Lysis Buffer (Promega) by the luciferase assay system (Promega) or β-galactosidase enzyme system (Promega). Luminometric and colorimetric reactions were read on the Wallack 1420 plate reader (Perkin Elmer). Stable transduction of reporters. 2×10^4 cells with integrated reporter were plated in 96-well plates. After overnight incubation, chemicals or media from lentivirus-producing cells were added. At different times, cell lysates were prepared using Reporter Lysis Buffer (Promega). Luciferase or β-galactosidase activity and protein concentration were measured in aliquots of cell lysates using standard kits (Promega, Luciferase and β-galactosidase assay systems, Biorad Protein Assay Kit).

p53 [2] = assay: p53-responsive reporter activity in tumor cells (HT1080 and others); format: cell-based, human; settings: for time of peak (maximum) p53 reporter activity: HT1080 cells
Procedure: as §1

p53-deficient cells [3] = assay: Survival of isogenic pairs of tumor cells differing in p53 expression; settings: isogenic pairs of cell lines, shRNA-mediated p53 knockdown
ACHN cells = assay: Experimental chemotherapy of tumor xenografts; format: in vivo, nude mice; settings: ACHN xenograft nude mice; QC 50 mg/kg; 5-fluorouracil 35 mg/kg
Procedure: NIH Swiss athymic nude, male mice, 5-6 weeks old, were purchased from Harlan. 5×10^6 tumor cells were inoculated into the flanks of mice in 100 μL of PBS. When tumors reached 5 mm in diameter, intraperitoneal injections of drugs were started in 100 μL of a solution of 50% DMSO in PBS (except for quinacrine, which was dissolved in PBS). As vehicle, 50% DMSO solution in PBS was used. Tumor size was measured in three dimensions every other day.

p53 [4] = assay: Screening for p53-activating compounds, p53-responsive reporter in RCC45ConALacZ cells; format: cell-based, human
Procedure: as §1
The DiverSet library of 34,000 chemical compounds and focused libraries of structural analogues of selected hits were provided by Chembridge, Calif. Cell lines with p53- or NF-κB-responsive luciferase or β-galactosidase reporters were described previously (5, 7). For screening chemicals, 2×10^4 RCC45ConALacZ cells (RCC45-based p53 reporter cells) were plated per well of 96-well plates in 200 μL of phenol-red-free RPMI medium with standard additions. After overnight incubation, the compounds were added to final concentrations of 5-15 μM (0.2 μL of compound in DMSO per well). […] After 24 h, lysis buffer with ortho-nitrophenyl-β-D-galactopyranoside (ONPG) was added and β-galactosidase activity was estimated colorimetrically by a multiwell plate reader.

p53 [5] = assay: p53 reporter in organ cultures of human RCC tumor samples; format: cell-based; settings: organ cultures of adjacent normal kidney, 12 hours
Procedure: FIG. 11. QC can activate p53 transactivation in organ cultures of human RCC tumor samples. Fresh surgically removed samples of tumor and adjacent normal kidney were cut into small pieces and put into media containing ConALacZ virus (5×10^7 TU/ml) with […] of polybrene for 4 hours. 24 hours after infection, tissue pieces (at least three per treatment) were incubated with media containing quinacrine or doxorubicin for 12 hours. Then the tissues were fixed for 30 min in PBS containing 0.5% glutaraldehyde and 1 mM MgCl2. Pieces of tumor were stained in PBS solution containing X-gal (1 mM MgCl2, 3.3 mM K4Fe(CN)6, 3.3 mM K3Fe(CN)6, 0.02% NP40, 0.2% X-gal) overnight at 37° C. Stained specimens were analyzed microscopically by squeezing pieces of tumor and normal tissues between two glass slides.

p53-deficient cells [6] = test system: p53-deficient cells
p53 [7] = assay: Phosphorylation status of p53 (Western analysis); format: cell-based, human; settings: RCC45 cells, 9AA 5 μM, 16 h
Procedure: (§2) Cells were lysed in RIPA buffer (25 mM Tris HCl, pH 7.2, 125 mM NaCl, 1% NP40, 1% sodium deoxycholate, 1 mM EDTA) containing 1 mM PMSF (Sigma), 10 ug/ml of aprotinin (Sigma) and 10 ug/ml of leupeptin (Sigma). Protein concentrations were determined with the BioRad Dc protein assay kit. Equal protein amounts were run on gradient 4-20% precast gels (Novex) and blotted onto PVDF membranes (Amersham). The following antibodies were used: anti-p53—monoclonal mouse DO1 (Santa-Cruz), anti-p21—monoclonal mouse F-5 (Santa-Cruz), anti-mdm2—monoclonal mouse SMP14 (Santa-Cruz), anti-p65—(C20, Santa Cruz), anti-phospho-p65—(ser536, Cell Signaling), anti-IκBa—(C21, Santa Cruz), anti-p50—(NLS, Santa Cruz), anti-IKK1 (Cell Signaling), anti-γH2X (Cell Signaling), anti-actin (Santa Cruz). p53 phosphorylation status was analyzed using the phospho-p53 sampler kit from Cell Signaling according to the manufacturer's recommendations. HRP-conjugated secondary antibodies were purchased from Santa Cruz. Quantitation of the data was performed using Quantity One software from BioRad.

IκBα = IκBα level (Western analysis); format: cell-based, human
Procedure: as §2

histone H2A.X = assay: Immunofluorescent detection of phosphorylated histone H2A.X; format: cell-based, human; settings: HT1080 cells, 10 μM
Source text: (§3) All washings were done with blocking solution.

p53 [8] = assay: Transient transfection of sr-IκB with p53-responsive reporter; format: cell-based, human; settings: ACHN cells, 9AA 10 μM, 24 h
Procedure: as §1

p65 subunit of NF-κB = assay: Phosphorylation of serine 536 of p65 (Western analysis); format: cell-based, human; settings: basally and after TNF-dependent induction; 9AA 10 μM
Procedure: as §2

topoisomerase II = assay: DNA topoisomerase II activity assay; format: cell-based, human; settings: direct in vitro assay, 1 h
proteasomal activity = assay: Proteasome inhibitor assay; format: biochemical; settings: direct in vitro assay (not shown)
Source text: The kit for assaying proteasomal activity was purchased from Boston Biochem, Inc. and used according to the manufacturer's recommendations.

HT1080 cells = assay: Cell cycle analysis; format: cell-based, human; settings: p53-dependent
Procedure: At the end of the incubation period, cells were collected, fixed and stained with propidium iodide as previously described (3a). DNA content was measured using FACScalibur (Becton Dickinson) and analyzed using CellQuest software.

RCC cell lines = assay: Growth inhibition assay, RCC, non-RCC and normal kidney (NKE) cells; format: cell-based, human
RCC45 and RCC54 cells = assay: Growth arrest or apoptosis of RCC cells treated with 9AA; format: cell-based, human
NF-κB [9] = assay: Electromobility shift assay and immunofluorescent staining of nuclear NF-κB; format: cell-based, human
Source text: as §3

p53 [10] = assay: p53, p21 and Mdm2 levels in treated cells (Western analysis); format: cell-based, human
Procedure: as §2

[11] = PLA2 inhibitors, data not shown

Structure (SMILES): Cc1ccc(S(=O)(=O)/C=C/C#N)cc1 [Bay11-7082]
basal activity of NF-κB (NF-κB [1]): did not reduce the basal activity
activation of p53 by known NF-κB inhibitors (p53 [2]; data not shown): capable of activating p53

Structure (SMILES): CC[C@@]1(O)C(=O)OCc2c1cc1n(c2=O)Cc2cc3ccccc3nc2-1 [camptothecin]
toxicity to p53-deficient cells (p53 dependence of cytotoxicity) (p53-deficient cells [3]): equally or even more toxic than 9AA to p53-deficient cells

weight loss (ACHN cells): up to 20%
Structure (SMILES): O=c1[nH]cc(F)c(=O)[nH]1 [5-fluorouracil]

Structure (SMILES): COc1cc(CNC(=O)CCCC/C=C/C(C)C)ccc1O [capsaicin]
basal activity of NF-κB (NF-κB [1]): did not reduce the basal activity
activation of p53 by known NF-κB inhibitors (p53 [2]; data not shown): capable of activating p53

Structure (SMILES): CC(/C=C/C(=O)NO)=C\[C@@H](C)C(=O)c1ccc(N(C)C)cc1 [trichostatin A]
NF-κB-dependent transcription (NF-κB [1]; H1299 cells, 100 nM TSA, 4 or 16 hours): strong activation of NF-κB-dependent transcription

Structure (SMILES): O=C(O)c1cc(/N=N/c2ccc(S(=O)(=O)Nc3ccccn3)cc2)ccc1O [sulfasalazine]
basal activity of NF-κB (NF-κB [1]): did not reduce the basal activity
activation of p53 by known NF-κB inhibitors (p53 [2]; data not shown): capable of activating p53

Structure (SMILES): COc1cccc2c1C(=O)c1c(O)c3c(c(O)c1C2=O)C[C@@](O)(C(=O)CO)C[C@@H]3O[C@H]1C[C@H](N)[C@H](O)[C@H](C)O1 [doxorubicin]
toxicity to p53-deficient cells (p53 dependence of cytotoxicity) (p53-deficient cells [3]): equally or even more toxic than 9AA to p53-deficient cells
activation of the p53-dependent reporter (p53 transactivation) in RCC (p53 [4]): weakly activating
p53-responsive reporter induction in normal kidney samples (p53 [5]): no reporter induction
time of peak (maximum) p53 reporter activity (p53 [2]): 8 to 12 h

Structure (SMILES): CCCCCCCCCCCCCCCCSC[C@H](COP(=O)(O)OCC[N+](C)(C)C)NC(=O)CCCCCCCCCCCCCCC [thioetheramide-PC]
inhibition of NF-κB (NF-κB [1]; [11]): nor inhibit NF-κB
induction of p53 (p53 [2]; [11]): could neither induce p53

Structure (SMILES): Nc1c2ccccc2nc2ccccc12 [9AA, 9-aminoacridine]
toxicity to p53-deficient cells (p53 dependence of cytotoxicity) (p53-deficient cells [6]): less toxic to p53-deficient cells
activation of the p53-dependent reporter (p53 transactivation) in RCC (p53 [4]): structure primarily responsible for induction of the reporter
phosphorylation of p53 (p53 [7]): did not induce the phosphorylation of p53
phosphorylation of p53 serine 392 (p53 [7]): increasingly phosphorylated
level of IκBα (IκBα; PC-3 cells 10 μM 1-8 h, MCF7 cells 10 μM): gradual decrease or even complete disappearance of IκBα
TNF-stimulated induction of IκBα (IκBα; TNF 10 ng/ml, 9AA 10 μM): blocked; also recorded: inhibits reconstitution of the level of IκB protein
phosphorylation of histone H2A.X (histone H2A.X): Neither 9AA nor QC induced phosphorylation of histone H2A.X
activation of a p53-dependent reporter in the presence of sr-IκB (p53 [8]): could not further activate
proportion of phosphorylated serine 536 in the p65 subunit of NF-κB (p65 subunit of NF-κB): reduce the proportion of phosphorylated serine 536; also recorded: decreases the phosphorylation of p65 in response to TNF
poisoning of topoisomerase II (topoisomerase II): no such activity
inhibition of proteasomal activity (proteasomal activity): ruled out
effect on the cell cycle (HT1080 cells; 3 μM): growth arrest
effect on the cell cycle (HT1080 cells; 20 μM): apoptosis
IC50 in RCC cells compared with non-RCC cells (RCC cell lines; 6 RCC and 6 non-RCC cell lines, growth inhibition assay): in the same range as for non-RCC cells
sensitivity of RCC-derived cell lines versus normal kidney epithelial (NKE) cells (RCC cell lines; 72 h after treatment): more toxic for RCC than for NKE cells; also recorded: more sensitive to 9AA than normal kidney epithelial cells
basal and TNF-induced NF-κB reporter activities (NF-κB [1]; H1299-NF-kB-Luc cells, TNF 10 ng/ml): strong dose-dependent suppression; also recorded: capable of inhibiting both basal and TNF-induced activities of NF-κB
inhibition of NF-κB transactivation induced by trichostatin A (NF-κB [1]; H1299 cells, 100 nM TSA, 9AA 20 μM, 4 or 16 hours): could no longer be blocked by 9AA; also recorded: does not inhibit
cellular effect in RCC45 and RCC54 cells (RCC45 and RCC54 cells; 2 μM): growth arrest
cellular effect in RCC45 and RCC54 cells (RCC45 and RCC54 cells; 10 μM): apoptosis
binding of NF-κB to DNA (NF-κB [9]; H1299-NF-κBLuc cells, with TNF 10 ng/ml, 6 h, gel-shift): significant increase in the binding of NF-κB to DNA
nuclear accumulation and retention of NF-κB (p65) complexes (NF-κB [9]; TNF 10 ng/ml, 10 μM): greatly prolonged the time of its presence in nuclei; also recorded: causes nuclear accumulation of inactive NF-κB; also recorded: causes accumulation of p65/p50 and p50/p50 NF-κB complexes in the nuclei
composition of NF-κB complexes (NF-κB [9]; gel-shift assays with antibodies, H1299 cells): did not significantly change the composition of NF-κB complexes
time of peak (maximum) p53 reporter activity (p53 [2]): 24 h
activation of p53-mediated transcription compared with DNA-damaging agents (p53 [2]; tumor cells with wild-type p53, 9AA 1-10 μM, doxorubicin 0.2-2 μM, 24 h): more strongly than doxorubicin in the majority of tumor cells tested; also recorded: more strongly than DNA-damaging agents
levels of the endogenous proteins p21 and Mdm2 (p53 [10]; cells treated for 16 h): dose-dependent increase
p53 mRNA expression (p53 [10]; data not shown): No increase
stabilization and accumulation of p53 protein (p53 [10]; treated cells (HT1080, 5 μM 9AA, 16 hours in FIG. 6)): induced stabilization and accumulation of p53 protein; also recorded: leads to p53 stabilization

Structure (SMILES): CC[C@]1(O)C[C@@H]2CN(CCc3c([nH]c4ccccc34)[C@@](C(=O)OC)(c3cc4c(cc3OC)N(C)[C@H]3[C@@](O)(C(=O)OC)[C@H](OC(C)=O)[C@]5(CC)C=CCN6CC[C@]43[C@@H]65)C2)C1 [vinblastine]
toxicity to p53-deficient cells (p53 dependence of cytotoxicity) (p53-deficient cells [3]): equally or even more toxic than 9AA to p53-deficient cells

Structure (SMILES): CC(=O)O[C@H]1C(=O)[C@@]2(C)[C@H]([C@H](OC(=O)c3ccccc3)[C@]3(O)C[C@H](OC(=O)[C@H](O)[C@@H](NC(=O)c4ccccc4)c4ccccc4)C(C)=C1C3(C)C)[C@]1(OC(C)=O)CO[C@@H]1C[C@@H]2O [taxol]
toxicity to p53-deficient cells (p53 dependence of cytotoxicity) (p53-deficient cells [3]): equally or even more toxic than 9AA to p53-deficient cells
